The test has as its system Colorado Potato Beetle (Leptinotarsa decemlineata). Nature of the test: Activity against Colorado potato beetle, potato leaf dip. It counts as in vivo. Particulars: foliar, 120 h, read-out: mortality compared to 0% mortality of untreated controls. The procedure: 6. Activity Against Colorado Potato Beetle (Leptinotarsa decemlineata)
Potato plants were utilized for bioassays. Excised plant leaves were dipped into 1:1 acetone/water dilutions of the active compounds. After the leaves had dried, they were individually placed onto water-moistened filter paper on the bottoms of Petri dishes. Each dish was infested with 5 to 7 larvae and covered with a lid. Each treatment dilution was replicated 4 times. Test dishes were held at approximately 27° C. and 60% humidity. Numbers of live and morbid larvae were assessed in each dish at 5 days after treatment application, and percent mortality was calculated.

The values that follow come from US20100069244A1, “Pyridine Compounds for Combating Pests” (priority 2006, published 2010).

The term mortality denotes the share of the test organisms that died.

As to `CC(C)N1CC[C@H]1COc1cncc(Cl)c1` [Ia-155, 3-Chloro-5-((S)-1-isopropyl-azetidin-2-ylmethoxy)-pyridine], the mortality at 300 ppm is more than 50%.
